From PMC7180572, “5-Alkylamino-N-phenylpyrazine-2-carboxamides: Design, Preparation, and Antimycobacterial Evaluation” (Molecules, 2020)
In brackets after ≈: the same amount, converted by molar mass. Where two headings read alike, the source gives them in different places.

Key:
[1] = tested on: Pseudomonas aeruginosa ATCC 27853, CCM 3955; test: Antibacterial microdilution broth method (EUCAST); type: cell-based; conditions: read-out: MIC PA
[2] = tested on: Mycobacterium aurum DSM 43999 (ATCC 23366); test: Microdilution broth, modified Microplate Alamar Blue Assay, whole cell growth inhibition; type: cell-based; conditions: Mycolicibacterium aurum, read-out: MIC Mycobacterium aurum
[3] = tested on: Candida parapsilosis ATCC 22019, CCM 8260; test: Antifungal microdilution broth method (EUCAST); type: cell-based; conditions: Lodderomyces parapsilosis
[4] = tested on: Candida krusei ATCC 6258, CCM 8271; test: Antifungal microdilution broth method (EUCAST); type: cell-based; conditions: Pichia kudriavzevii
[5] = tested on: Staphylococcus aureus methicillin resistant ATCC 43300, CCM 4750; test: microbe, parasite or virus in culture; type: cell-based; conditions: ATCC 43300 / CCM 4750 / MRSA, read-out: MIC MRSA
[6] = tested on: Absidia corymbifera CCM 8077 (Lichtheimia corymbifera); test: Antifungal microdilution broth method (EUCAST); type: cell-based; conditions: read-out: MIC AC
[7] = tested on: M. kansasii CNCTC My 235/80 (ATCC 12478); test: 96 well plate microdilution broth method with Alamar Blue; type: cell-based; conditions: Mycobacterium kansasii
[8] = tested on: Candida tropicalis ATCC 750, CCM 8264; test: Antifungal microdilution broth method (EUCAST); type: cell-based; conditions: read-out: MIC CT
[9] = tested on: Mycobacterium tuberculosis H37Ra ITM-M006710 (ATCC 9431); test: Microdilution broth, modified Microplate Alamar Blue Assay, whole cell growth inhibition; type: cell-based; conditions: Mycobacterium tuberculosis, read-out: MIC Mtb H37Ra
[10] = tested on: Mycobacterium smegmatis DSM 43465 (ATCC 607); test: as above; type: cell-based; conditions: Mycolicibacterium smegmatis, read-out: MIC Mycobacterium smegmatis
[11] = tested on: Staphylococcus epidermidis ATCC 12228, CCM 4418; test: Antibacterial microdilution broth method (EUCAST); type: cell-based; conditions: read-out: MIC SE
[12] = tested on: Escherichia coli ATCC 25922, CCM 3954; test: Antibacterial microdilution broth method (EUCAST); type: cell-based; conditions: read-out: MIC EC
[13] = tested on: Staphylococcus aureus spp.aureus ATCC 29213, CCM 4223; test: Antibacterial microdilution broth method (EUCAST); type: cell-based; conditions: read-out: MIC SA
[14] = tested on: Acinetobacter baumanii ATCC 19606, DSM 30007; test: Antibacterial microdilution broth method (EUCAST); type: cell-based; conditions: Acinetobacter baumannii
[15] = tested on: Aspergillus flavus CCM 8363; test: Antifungal microdilution broth method (EUCAST); type: cell-based; conditions: read-out: MIC AFla
HepG2 cells = test: HepG2 cytotoxicity, CellTiter 96 (MTS) assay; type: cell-based, human; conditions: for IC50: Homo sapiens, read-out: HepG2 IC50
[16] = tested on: Aspergillus fumigatus ATCC 204305; test: Antifungal microdilution broth method (EUCAST); type: cell-based; conditions: read-out: MIC AF
[17] = tested on: Enterococcus faecalis ATCC 29212, CCM 4224; test: Antibacterial microdilution broth method (EUCAST); type: cell-based; conditions: read-out: MIC EF
[18] = tested on: Candida albicans ATCC 24433, CCM 8320; test: Antifungal microdilution broth method (EUCAST); type: cell-based
[19] = tested on: M. avium ssp. avium CNCTC My 80/72 (ATCC 15769); test: 96 well plate microdilution broth method with Alamar Blue; type: cell-based; conditions: Mycobacterium avium
[20] = tested on: Trichophyton interdigitale ATCC 9533, CCM 8377; test: Antifungal microdilution broth method (EUCAST); type: cell-based; conditions: read-out: MIC TI
[21] = tested on: Klebsiella pneumoniae ATCC 10031, CCM 4415; test: Antibacterial microdilution broth method (EUCAST)
[22] = type: physicochemical
Method: As a complementary test, final compounds were tested for in vitro activity against selected fungal and bacterial pathogens of clinical importance. The microdilution broth method was performed according to The European Committee on Antimicrobial Susceptibility Testing (EUCAST) instructions with slight modifications. The minimum inhibitory concentration was expressed in µM. Not all compounds were evaluated due to the fact of a problem with solubility which occurred for 18 samples. […] See Supplementary Materials for the list of tested strains, methodology, and full results.

[23] = in vitro, Middlebrook 7H9 broth, resazurin
[24] = HepG2, 24 h incubation, > means higher concentration not reproducible due to precipitation

Structure (SMILES): CCCCCNc1cnc(C(=O)Nc2ccc(O)cc2)cn1 [Compound 3c, N-(4-hydroxyphenyl)-5-(pentylamino)pyrazine-2-carboxamide]
- MIC ([1]; 72 h): > 125 µM
- MIC ([1]; 120 h): > 125 µM
- MIC [2]: ≥ 500 µg/mL
- MIC ([3]; 24 h, read-out: MIC CP): > 125 µM
- MIC ([3]; 48 h, read-out: MIC CP): > 125 µM
- MIC ([3]; read-out: MIC CP (Candida parapsilosis)): > 125 µM
- MIC ([4]; 24 h, read-out: MIC CK): > 125 µM
- MIC ([4]; 48 h, read-out: MIC CK): > 125 µM
- MIC ([4]; read-out: MIC CK (Candida krusei)): > 125 µM
- MIC ([5]; 24 h): > 125 µM
- MIC ([5]; 48 h): > 125 µM
- MIC ([6]; CCM8077, 24 h): > 125 µM
- MIC ([6]; CCM8077, 48 h): > 125 µM
- MIC ([7]; ATCC12478, pH 6.6, read-out: MIC Mycobacterium kansasii): 12.5 µg/mL (≈ 41.6 µM)
- MIC ([8]; 24 h): > 125 µM
- MIC ([8]; 48 h): > 125 µM
- MIC ([9]; MIC converted to µM): 13 µM
- MIC [9, 23]: 3.91 µg/mL
- MIC [10]: 31.2 µg/mL (≈ 104 µM)
- MIC ([11]; 24 h): > 125 µM
- MIC ([11]; 48 h): > 125 µM
- MIC ([12]; 24 h): > 125 µM
- MIC ([12]; 48 h): > 125 µM
- MIC ([13]; 24 h): > 125 µM
- MIC ([13]; 48 h): > 125 µM
- MIC ([14]; 24h): > 125 µM
- MIC ([14]; 48h): > 125 µM
- melting point: 162.6 to 166.8 °C
- MIC ([15]; CCM8363, 24 h): > 125 µM
- MIC ([15]; CCM8363, 48 h): > 125 µM
- HepG2 IC50 (HepG2 cells; 24 h incubation, > means higher concentration not reproducible due to precipitation): above the tested range of concentrations
- IC50 (HepG2 cells; HepG2, 24 h): > 500 µM
- SI, selectivity index (HepG2 cells; IC50 (HepG2)/MIC against Mtb H37Ra (in µM)): >38.4
- MIC ([16]; ATCC204305, 24 h): > 125 µM
- MIC ([16]; ATCC204305, 48 h): > 125 µM
- MIC ([17]; 24 h): > 125 µM
- MIC ([17]; 48 h): > 125 µM
- MIC ([18]; 24 h, read-out: MIC CA): 62.5 µM (≈ 18.8 µg/mL)
- MIC ([18]; 48 h, read-out: MIC CA): 62.5 µM (≈ 18.8 µg/mL)
- MIC ([18]; read-out: MIC CA (Candida albicans)): 62.5 µM (≈ 18.8 µg/mL)
- MIC ([19]; ATCC15769, pH 6.6, read-out: MIC Mycobacterium avium): 50 µg/mL (≈ 166 µM)
- MIC ([20]; 72 h): > 125 µM
- MIC ([20]; 120 h): > 125 µM
- MIC KP ([21]; 24h): > 125 µM
- MIC KP ([21]; 48h): > 125 µM

Structure (SMILES): CCCNc1cnc(C(=O)Nc2cc(Cl)ccc2O)cn1 [Compound 7a, N-(5-chloro-2-hydroxyphenyl)-5-(propylamino)pyrazine-2-carboxamide]
- MIC [2, 23]: 250 µg/mL (≈ 815 µM)
- Solubility problem in antibacterial/antifungal testing [22]: did not dissolve in DMSO
- MIC [9, 23]: ≥ 500 µg/mL
- MIC [10, 23]: < 3.91 µg/mL
- melting point: 254 to 259 °C
- IC50 (HepG2 cells; [24]): > 25 µM

Structure (SMILES): CCCCNc1cnc(C(=O)Nc2cc(Cl)ccc2O)cn1 [Compound 7b, 5-(Butylamino)pyrazine-N-(5-chloro-2-hydroxyphenyl)-2-carboxamide]
- MIC [2, 23]: ≥ 500 µg/mL
- Solubility problem in antibacterial/antifungal testing [22]: did not dissolve in DMSO
- MIC [9, 23]: ≥ 500 µg/mL
- MIC [10, 23]: 3.91 µg/mL (≈ 12.2 µM)
- melting point: 257.9 to 262.1 °C
- IC50 (HepG2 cells; [24]): > 25 µM

Structure (SMILES): CCCCCNc1cnc(C(=O)Nc2cc(Cl)ccc2O)cn1 [Compound 7c, N-(5-chloro-2-hydroxyphenyl)-5-(pentylamino)pyrazine-2-carboxamide]
- MIC [2, 23]: ≥ 500 µg/mL
- Solubility problem in antibacterial/antifungal testing [22]: did not dissolve in DMSO
- MIC [9, 23]: ≥ 500 µg/mL
- MIC [10, 23]: ≥ 500 µg/mL
- melting point: 250.3 to 255.1 °C
- IC50 (HepG2 cells; [24]): > 25 µM

Structure (SMILES): CCCCCCNc1cnc(C(=O)Nc2cc(Cl)ccc2O)cn1 [Compound 7d, N-(5-chloro-2-hydroxyphenyl)-5-(hexylamino)pyrazine-2-carboxamide]
- MIC [2, 23]: ≥ 500 µg/mL
- Solubility problem in antibacterial/antifungal testing [22]: did not dissolve in DMSO
- MIC [9, 23]: ≥ 500 µg/mL
- MIC [10, 23]: ≥ 500 µg/mL
- melting point: 249.3 to 251.9 °C
- IC50 (HepG2 cells; [24]): > 25 µM

Structure (SMILES): CCCCCCCNc1cnc(C(=O)Nc2cc(Cl)ccc2O)cn1 [Compound 7e, N-(5-chloro-2-hydroxyphenyl)-5-(heptylamino)pyrazine-2-carboxamide]
- MIC [2]: ≥ 500 µg/mL
- Solubility problem in antibacterial/antifungal testing [22]: did not dissolve in DMSO
- MIC [9]: ≥ 500 µg/mL
- MIC [10]: 31.2 µg/mL (≈ 86.1 µM)
- melting point: 243.6 to 246 °C
- IC50 (HepG2 cells; [24]): > 10 µM

Structure (SMILES): CCCCCCCCNc1cnc(C(=O)Nc2cc(Cl)ccc2O)cn1 [Compound 7f, N-(5-chloro-2-hydroxyphenyl)-5-(octylamino)pyrazine-2-carboxamide]
- MIC [2, 23]: ≥ 500 µg/mL
- Solubility problem in antibacterial/antifungal testing [22]: did not dissolve in DMSO
- MIC [9, 23]: ≥ 500 µg/mL
- MIC [10, 23]: 250 µg/mL (≈ 663 µM)
- melting point: 239.7 to 242.4 °C
- IC50 (HepG2 cells; [24]): > 50 µM

Structure (SMILES): NNC(=O)c1ccncc1 [INH, isoniazid, reference compound]
- MIC [2, 23]: 3.91 to 7.81 µg/mL (≈ 28.5 to 56.9 µM)
- MIC ([7]; ATCC12478, Middlebrook 7H9 broth pH 6.6, read-out: MIC Mycobacterium kansasii): 25 µg/mL (≈ 182 µM)
- MIC [9, 23]: 0.125 to 0.25 µg/mL
- MIC [10, 23]: 7.81 to 15.6 µg/mL (≈ 56.9 to 114 µM)
- MIC ([19]; ATCC15769, Middlebrook 7H9 broth pH 6.6, read-out: MIC Mycobacterium avium): 25 µg/mL (≈ 182 µM)
